Data set [1] deals with porcine scleral tissue. As to the kind of experiment: scleral tissue cross-linking of cut porcine scleral pieces, shift in Tm by DSC.
Experimental: Equatorial scleral strips approximately 6 mm×40 mm in size were obtained from multiple eyes. These strips were submerged in DPBS solution containing 1 mM EDTA to inactivate native collagenases and to prevent tissue dehydration during sample preparation. Each strip was further cut into smaller 4 mm×3 mm pieces. The scleral pieces were individually transferred to a 24 well plate and were incubated in 1 ml of cross-linking solution in 0.1M NaHCO3 buffer at either pH 8.5 or 7.4 for 30 mins at 25° C. without refreshing the solution. […] Negative controls were treated identically with vehicle. Post-treatment, all solutions were aspirated and samples were washed twice using DPBS to remove remnant cross-linking solution before being analyzed by DSC. A minimum of three independent determinations were carried out for each condition using scleral pieces originating from different porcine globes.
(§1) Thermal denaturation temperature (Tm) of all samples was measured using a Perkin-Elmer DSC 6000 Autosampler (Waltham, Mass.). Tissue samples were carefully blotted in a standardized, repetitive manner to remove excess solution/DPBS and transferred to pre-weighed 50 ul aluminum pans. The pans were immediately hermetically sealed using a DSC pan sealing press, which is used to prevent tissue dehydration due to evaporative losses. DSC scans were run using Pyris software (version 11.0) from 40° C. to 75° C. at a rate of 1° C./min and denaturation curves representing differential heat flow over time were recorded. DSC heat flow endotherm data was analyzed using the Pyris data analysis peak search function using a calculation limit of ±0.3° C. from the apparent thermal denaturation peak.
Conversely, scleral samples were subjected to non-paired t-tests assuming equal variance of data. […] All ΔTm values are reported in the form of mean value followed by standard error.
For data set [2], the system named is Salmonella. The following applies: Ames, micronucleus and other assays as per footnotes; cited from earlier work.
Data set [3] in a line: cross-linking (gel formation) with polyallylamine (PAA) hydrogel model system. The following applies: with PAA at 37° C. and pH 7.4 phosphate buffered solution. The source says: Shown in Table 1 below are the results from a parallel study using a hydrogel functionalized amine cross-linking system (polyallylamine, or “PAA”) previously published for reactions using nitroalcohols (NAs). Li et al., “Mechanistic and catalytic studies of β-nitroalcohol crosslinking with polyamine,” J Appl Polym Sci. 2013; 128:3696-3701. The Table summarizes the results obtained in comparison studies using three of the higher order nitroalcohols previously reported (the nitrotriol HNPD, the nitrodiol MNPD, and the brominated nitrodiol known as Bronopol). The cross-linking efficacy of these nitroalcohol compounds were compared to two of the instantly disclosed formaldehyde releasing agents (diazolidinyl urea (DAU) and imidazolidinyl urea (IMU)). The time to gel formation indicates cross-linking efficacy in this system.

Data set [4] relates to rat. The following applies: cited from earlier work.
The conditions of data set [5]: from literature registry; cited from earlier work.
For data set [6], the system named is intact cadaveric rabbit cornea. Kind of data set: ex vivo rabbit corneal cross-linking simulation setup, shift in thermal denaturation temperature (Tm) by DSC. The following applies: for cross-linking efficacy compared with nitroalcohol NP (250 mM, 60 minutes): FIG. 2, half of maximum allowed concentration (DAU 9 mM, SHMG 18.5 mM, DMDM 16 mM), 30 minutes; for ΔTm (shift in denaturation temperature of corneal tissue): Second Experimental Details, 30 mins, mean ± standard error.
Experimental: 0.5% proparacaine was applied prior to the cross-linking solution. A cross-linking solution containing the formaldehyde releasing agent was then administered via a corneal reservoir for 30 minutes in 0.1M NaHCO3 at either pH 7.4 or 8.5. The epithelium was left intact. The control contralateral eye was treated identically with vehicle.
Effectiveness of cross-linking was based on shifts in thermal denaturation temperature (Tm) as measured by differential scanning calorimetry (DSC) (Perkin-Elmer DSC 6000).
Intact cadaveric rabbit heads with clear corneas were obtained fresh (within an hour of sacrifice) in adherence with the ARVO Statement For the Use of Animals in Ophthalmic and Vision Research. FAR solutions at concentrations equivalent to half the maximum allowed value (½ max) were administered in a manner designed to simulate therapeutic cross-linking in patients. For all of the corneal experiments (with the notable exception of CXL), the corneal epithelium was left intact. An 8 mm Hessburg-Barron corneal reservoir was affixed to the corneal surface using the supplied syringe vacuum. A single drop of proparacaine (0.5%) was applied to the corneal surface prior to reservoir application. A buffer solution containing 0.1M NaHCO3 at either pH 8.5 or 7.4 was used. The pH of the sample and buffer mixture was titrated to the desired pH just prior to application to the eye using an appropriately concentrated HCl solution. Treatments were conducted over a 30-minute period at 25° C. with refreshing of the solution every five minutes. The control contralateral eye was treated identically with vehicle. Immediately after treatment, a central 6 mm corneal button was trephined from the treated region of each eye, was blotted on both sides using a paper towel to remove excess solution, and was analyzed using differential scanning calorimetry (DSC) [see below]. A minimum of two independent determinations were carried out for each condition described using a fresh cadaver head each time.
as §1
Due to the nature of the ex vivo cadaveric system used for corneal cross-linking, where each cadaver provided the treated eye and contralateral control, corneal samples were subjected to paired t-tests. […] All ΔTm values are reported in the form of mean value followed by standard error.

Data set [7] concerns human skin fibroblasts (HSFs). The following applies: past cell toxicity studies; cited from earlier work.
Data set [8] is described as follows: quantitative determination of formaldehyde release by 13C-NMR. It is filed as physicochemical. The following applies: pH 7.4 phosphate buffer, releaser 1.5 M; for Concentration of formaldehyde (M)a: free formaldehyde after 30 min at 37° C.; for Concentration of formaldehyde (M)b: free formaldehyde after 1 hour at 37° C. The protocol:
In the study corresponding with Table 2, NMR samples were prepared in NMR tubes as follows: X mg of formaldehyde-releaser, 500 ul of phosphate buffer (pH 7.4), and 500 ul of a solution of acetonitrile in D2O as internal standard (0.2M). […]. For each spectrum, the area of the formaldehyde signal at 82.5 ppm was compared with that of the acetonitrile signal at 1.3 ppm (internal standard).
• Concentration of formaldehyde-releasing agent (FAR), including nitroalcohols is 1.5 M. ^aConcentration of free formaldehyde (FA): after the sample was incubated in a water bath at 37° C. for 30 min. ^bConcentration of free formaldehyde (FA): after the sample was incubated in a water bath at 37° C. for 1 hour.

For data set [9], the system named is mouse. The following applies: in vivo; cited from earlier work.
Data set [10] relates to human skin fibroblasts (HSFs). The following applies: 24 hrs exposure, 48 hr recovery. The protocol:
Healthy human skin fibroblasts (HSFs) from ATCC (Manassas, Va.) were cultured in dermal cell basal media (ATCC) using a serum-free fibroblast growth kit provided by the company (ascorbic acid, EGF/TGF-β1, glutamine, hydrocortisone, insulin and FB growth supplements). Cells were grown in 5% CO2 and 95% ambient air at 37° C. until confluent. Once confluent, the cells were detached and seeded into 24 well plates at a density of 5×10^4 cells/well and were once again allowed to reach confluence. Next, cells were treated with FAR solutions over a range of concentrations (0.001 mM-5 mM) for 24 hrs. Following cross-linking exposure, all cell media, including FAR solution, was aspirated and each well was rinsed once with DPBS. Fresh media was then reintroduced and the cells were allowed to recover for 48 hrs. Subsequent to cell recovery, cell toxicity was assessed using a modified version of the trypan blue staining protocol. To that end, all culture media was aspirated and each well was rinsed with DPBS. Next, 0.4% trypan blue solution (Gibco, Grand Island, N.Y., USA) was added to each well for 3 minutes at 25° C. The staining solution was then aspirated and cells were washed twice with DPBS. Finally, extent of trypan blue staining and morphology of cells was visualized using an inverted microscope (Fisher Scientific Cat#12-560-45).
Planar cell culture experiments using Human Skin Fibroblasts (HSFs) were conducted to determine the toxicity thresholds of the FARs. The toxicity threshold was taken to be the highest concentration in mM at which all cells were alive following a 24 hour exposure to the FAR and a 48 hour recovery period.

For data set [11], the system named is rabbit. The following applies: cited from earlier work.
[12] abbreviates: pH 8.5, concentrations as low as half max allowed.
Setting [13] is: pH 7.4, half max allowed concentration, epithelium intact.
Where [14] appears, read: pH 8.5, half max allowed concentration, epithelium intact.

Like-named read-outs stand apart in the source and are kept apart here. Where only a bound is given, the exact number is not on record here.

The values below come from patent publication US10105350B2, “Cosmetic preservatives as therapeutic corneoscleral tissue cross-linking agents” (THE TRUSTEES OF COLUMBIA UNIVERSITY IN THE CITY OF NEW YORK, priority 2014, dated 2018).

Turning to `O=[N+]([O-])C(Br)(CO)CO` [BP, 2-bromo-2-nitro-1,3-propanediol, reference compound], the “ΔTm of scleral tissue” value in data set [1] (25 mM, pH 7.4, 30 mins) was approximately 0.5 °C; in data set [1] (25 mM, pH 8.5, 30 mins) it was approximately 0.5 °C. In [2], the Mutagenicity result is “Non- mutagenic§”. The “Cross-linking time to gel formation” value in [3] worked out at 42 h. Besides, the “LD50 Oral rat” value in data set [4] (oral) is recorded as 180 mg/kg.
Turning to `CC1(C)C(=O)N(CO)C(=O)N1CO` [DMDM, 1,3-dimethylol-5,5-dimethyl-hydantoin], in data set [1] (25 mM, pH 7.4, 30 mins), the “ΔTm of scleral tissue” value stood at 1.693±0.033 °C. For the same compound, the “scleral cross-linking effect (significance of ΔTm)” value in data set [1] (pH 7.4, concentrations as low as half max allowed) is reported as “statistically significant cross-linking effects”; in [1] (setting [12]), “statistically significant cross-linking effects”. In [5], the “Octanol Partition Coefficient (Log P)” value is given as −1.078 ± 0.654. Besides, the “cross-linking efficacy compared with nitroalcohol NP (250 mM, 60 minutes)” value in data set [6] is reported as “significantly more effective”. Moreover, the “ΔTm (shift in denaturation temperature of corneal tissue)” value in [6] (setting [13]) was 2.13±0.273 °C; in [6] (setting [14]), 2.04±0.225 °C. Also, the Mutagenicity entry in data set [2] is “Non- mutagenic‡”.
In the case of `O=CC(O)CO` (stereo not shown) [Glyceraldehyde], the “toxic threshold for HSFs” value in data set [7] is reported as 1 mM.
For the compound `O=[N+]([O-])C(CO)(CO)CO` [HNPD, 2-hydroxymethyl-2-nitro-1,3-propanediol, reference compound], the “ΔTm of scleral tissue” value in [1] (25 mM, pH 7.4, 30 mins) was “negative ΔTm”. In addition, the “ΔTm of scleral tissue” value in data set [1] (25 mM, pH 8.5, 30 mins) is approximately 0.5 °C. Moreover, the “Octanol Partition Coefficient (Log P)” value in [5] was −0.115 ± 0.770. For the same compound, in data set [8], the “Concentration of formaldehyde (M)a” value is 0.041 M and the “Concentration of formaldehyde (M)b” value was 0.078 M. The “LD50 Oral mouse” value in data set [9] is given as 10,550 mg/kg. In addition, the Mutagenicity entry in [2] is “Non- mutagenic∥”. In addition, in data set [3], the “Cross-linking time to gel formation” value was 29 h. The “LD50 Oral rat” value in data set [4] (in vivo, po) is listed as 1,917 mg/kg.
For the compound `O=C(NCNC(=O)NC1C(=O)NC(=O)N1CO)NC1C(=O)NC(=O)N1CO` (stereo not shown) [IMU, N,N′-methylenebis[N-[3-(hydroxymethyl)-2,5-dioxo-4-imidazolidinyl]]-urea], the “ΔTm of scleral tissue” value came to 1.280±0.392 °C in data set [1] (25 mM, pH 7.4, 30 mins) and 2.543±0.280 °C in data set [1] (25 mM, pH 8.5, 30 mins). For the same compound, the “Octanol Partition Coefficient (Log P)” value in [5] is on record as −4.930 ± 0.959. For the same compound, the “ΔTm (shift in denaturation temperature of corneal tissue)” value in [6] (setting [14]) is −0.69±0.697 °C. Besides, the “negative shift in Tm of corneal tissue” value in data set [6] (pH 7.4, half max allowed concentration, epithelium intact, not significant) was approximately 0.5 °C. Besides, the “cell state (Alive/Dead)” value in data set [10] (0.001 mM) was “Alive”; in data set [10] (0.01 mM) it was “Alive”; in [10] (0.1 mM), “Alive”; in data set [10] (1 mM), “Dead”; in [10] (5 mM), “Dead”. For the same compound, in data set [4] (oral), the “LD50 Oral rat” value is on record as “LD50 Oral- rat-11,300 mg/kg”.
In the case of `CCC12COCN1COC2` [OCT, 5-Ethyl-3,7-dioxa-1-azabicyclo [3.3.0] octane], the “ΔTm of scleral tissue” value was approximately 0.5 °C in [1] (25 mM, pH 7.4, 30 mins) and approximately 0.5 °C in data set [1] (25 mM, pH 8.5, 30 mins). Besides, in data set [11] (dermal), the “LD50 Dermal rabbit” value is 1,948 mg/kg. Further, in data set [6] (setting [14]), the “ΔTm (shift in denaturation temperature of corneal tissue)” value is 1.10±0.246 °C. Moreover, the “LD50 Oral rat” value in data set [4] (oral) is recorded as > 3,600 mg/kg.
For the compound `O=C([O-])CNCO.[Na+]` [SMG, sodium hydroxymethylglycinate], the “ΔTm of scleral tissue” value in data set [1] (25 mM, pH 7.4, 30 mins) was found to be 1.697±0.311 °C; in [1] (25 mM, pH 8.5, 30 mins), 5.463±0.419 °C; in data set [1] (pH 7.4, 39.06 mM (max allowed), 30 mins), 0.007±0.222 °C; in data set [1] (pH 8.5, 39.06 mM (max allowed), 30 mins) it was 9.073±0.450 °C. Also, in data set [1] (setting [12]), the “scleral cross-linking effect (significance of ΔTm)” value is reported as “statistically significant cross-linking effects”. For the same compound, the “Octanol Partition Coefficient (Log P)” value in data set [5] is given as −1.197. Besides, in data set [11] (in vivo, topical or ocular), the “LD50 Dermal rabbit” value was “rabbit->2,000 mg/kg”. For the same compound, in [6], the “cross-linking efficacy compared with nitroalcohol NP (250 mM, 60 minutes)” value is given as “significantly more effective”. Further, the “ΔTm (shift in denaturation temperature of corneal tissue)” value in data set [6] (setting [13]) is 2.281±0.697 °C; in data set [6] (setting [14]), 3.573±0.578 °C. In addition, the “cell state (Alive/Dead)” value in data set [10] (0.001 mM) is on record as “Alive”; in data set [10] (0.01 mM), “Alive”; in [10] (0.1 mM), “Alive”; in data set [10] (1 mM), “Dead”; in data set [10] (5 mM) it was “Dead”. The Mutagenicity entry in data set [2] is reported as “Non- mutagenic†”. The “LD50 Oral rat” value in data set [4] (in vivo, po) is recorded as “LD50 Oral- rat-2,100 mg/kg, LD50 Dermal-”.
With `COC(=O)C1=CO[C@@H](O)[C@@H]2C(CO)=CC[C@H]12` [genipin], the “toxic threshold for HSFs” value in data set [7] is on record as “on par with bronopol”.
On to `O=CCCCC=O` [glutaraldehyde], for which, in data set [7], the “toxic threshold for HSFs” value is “on par with bronopol”.
As for `CC(CO)(CO)[N+](=O)[O-]` [nitro-diol, 2-methyl-2-nitro-1,3-propanediol], in data set [8], the “Concentration of formaldehyde (M)a” value came out at 0.011 M and the “Concentration of formaldehyde (M)b” value came to 0.044 M. The “Cross-linking time to gel formation” value in [3] is 66 h.
Take `CC(CO)[N+](=O)[O-]` (stereo not shown) [nitro-monol, 2-nitro-1-propanol]: in data set [8], the “Concentration of formaldehyde (M)a” value was 0.018 M and the “Concentration of formaldehyde (M)b” value stood at 0.014 M.
“N,N′-methylenebis[N-[3-(hydroxymethyl)-2,5-dioxo-4-imidazolidinyl]]-urea [IMU]”: in data set [3], the “Cross-linking time to gel formation” value stood at 4 h.
